Patent US7053178B2, “Synthetic peptides and kits for diagnosis of anti-phospholipid syndrome” (Yeda Research Development Co., LTD, priority 1998, dated 2006)
Where no end group is shown, it is not given here.

Experiments:
anti-β2GPI G-3 mAb [1] = experiment: Competition ELISA: inhibition of G-3 mAb binding to β2GPI; parameters: species or system human; conditions: 10 μM peptide concentration
Procedure: (§1) FIGS. 1A–1C are graphs showing inhibition of the anti-β2GPI ILA-1, ILA-3 and G-3 mAbs binding to β2GPI by competition assays using increasing concentrations of the inhibitory monomer peptides A, B and C, respectively, and of unrelated peptide D as control. The percent of inhibition was calculated as follows: % inhibition=O.D control−O.D with inhibitor/O.D control×100. Each point represents mean±SD of three different experiments.
(e) Inhibition of anti-β2GPI mAb binding to β2GPI by the inhibitory peptides. For competition ELISA tests, the anti-β2GPI mAbs (10 μg/ml) were preincubated (overnight at 4° C.) with varying concentrations of the peptides. The competition reaction was then transferred to β2GPI-coated γ-irradiated ELISA plates (Nunc), and the assay continued as described above. The percentage of inhibition was calculated as follows: % inhibition=O.D control −O.D with inhibitor/O.D control×100.
(2a) The specificity of interaction of the mAbs with the corresponding synthetic peptides A, B, C and control peptide D as monomers, was assessed by inhibition experiments as described in Materials and Methods, sections (e) and (f).

anti-β2GPI G-3 mAb [2] = experiment: ELISA for adhesion molecule expression on HUVEC exposed to G-3 mAb; type: cell-based, human; conditions: G-3 mAb preincubated with peptide
Procedure: FIG. 4 is a bar graph showing inhibition of expression of the adhesion molecules E-selectin, intracellular adhesion molecule-1 (ICAM-1) and vascular cell adhesion molecule-1 (VCAM-1) on HUVEC by specific inhibitory monomer peptides A, B, or C. To the HUVEC incubated with β2GPI, were added anti-β2GPI ILA-1, ILA-3 and G-3 mAbs with and without preincubation (2 h) with the peptide monomers A, B and C, respectively, and control peptide D. The expression of adhesion molecules was probed by ELISA employing biotinylated anti-human ICAM-1, VCAM-1, E-selectin and streptavidin-alkaline phosphatase. Each point represents mean±SD of three different experiments.
(h) ELISA for detecting the expression of adhesion molecules following exposure to anti-β2GPI mAbs and the inhibitory peptides. HUVEC cells grown in 96-well plates and preincubated with mAbs, with and without different concentrations of specific and irrelevant peptides (100 ug/ml), were washed, fixed with 0.1% glutaraldehyde, and then treated with PBS containing 0.2% Triton-X100 in order to permeabilize the cell membrane (Adamson et al., 1996). The plates were blocked with 3% BSA and incubated with biotinylated mouse anti-human E-selectin, anti-human intracellular adhesion molecule-1 (ICAM-1) or anti-human vascular cell adhesion molecule-1 (VCAM-1) (PharMingen, Torreyana Road, San Diego, Calif.) 1 μg/ml for 1 hour. The cells were then exposed to streptavidin alkaline phosphatase (Jackson) and appropriate substrate.
The enhancement of monocytes to endothelial cells followed by increase in the amount of adhesion molecules expression, as a result of exposure of endothelial cells to anti-β2GPI mAbs, has been observed previously at the laboratory of one of the present inventors. The effect of each specific peptide monomer A, B, C on the expression of the adhesion molecules E-selectin, ICAM-1 and VCAM-1 on HUVEC caused by the corresponding anti-β2GPI mAb, was examined according to Materials and Methods, section (h). […]

anti-β2GPI ILA-3 mAb = experiment: Cyto-ELISA: inhibition of ILA-3 mAb binding to HUVEC; parameters: species or system human; conditions: peptide concentration of 10 μM
Procedure: as §1, with “FIGS. 2A–2C” for “FIGS. 1A–1C”, “to human umbilical vein endothelial cells (HUVEC)” for “to β2GPI”, “as in FIG. 1 above.” for “as follows: % inhibition=O.D control−O.D with inhibitor/O.D control×100.”
(f) Anti-β2GPI mAb binding to endothelial cells in the presence of the inhibitory peptides. Human umbilical vein endothelial cells (HUVEC) were isolated as previously described and cultured under standard conditions (Jaffe et al., 1973). Briefly, umbilical cords were treated with collagenase (0.2% from Clostridium histolyticum, Boehringer) for 20 min at 37° C., cells were cultured in medium 199 with 20% FCS, 10 μg/ml growth supplement, 100 μg/ml heparin and antibiotics (streptomycin, penicillin), and used at passages 1–2 for plating onto gelatin-coated 96-well plates. Cyto-ELISA was performed as detailed before (Jaffe et al., 1973). Briefly, mAbs at different concentrations were added to HUVEC confluent wells, previously coated with 10 μg/ml β2GPI for 2 hours and fixed with 0.1% glutaraldehyde. The bound mAb was detected by further 1-hour incubation with alkaline phosphatase-conjugated goat anti-human IgM. […]

Row | Sequence | inhibition of G-3 mAb binding to β2GPI (anti-β2GPI G-3 mAb [1]) | E-selectin expression by HUVEC (anti-β2GPI G-3 mAb [2]) | ICAM-1 expression by HUVEC (anti-β2GPI G-3 mAb [2]) | VCAM-1 expression by HUVEC (anti-β2GPI G-3 mAb [2]) | inhibition of ILA-3 mAb binding to HUVEC (anti-β2GPI ILA-3 mAb)
1 | CATLRVYKGG [Peptide C] | 98% | 0.215±0.047 O.D. | 0.186±0.062 O.D. | 0.174±0.062 O.D. | –
2 | KDKATFGTHDG [Peptide B] | – | – | – | – | 72%
